Key:
CEM T cells = assay: Emission spectra in living and apoptotic cell suspensions, and Ca2+ dependence; type: cell-based, human
Description: FIG. 3: Emission spectra of the probe F2N12S in living (solid line) and apoptotic (dash line) CEM cells. Excitation wavelength was 400 nm. Final probe concentration was 0.1 μM.
FIG. 4: Ca^2+ dependence of F2N12S emission spectra in apoptotic CEM cells. The excitation wavelength was 400 nm. The spectra were recorded at Ca^2+ concentrations of 0.2, 0.4, 0.8, 1.2 and 2 mM and normalized. Final probe concentration was 0.1 μM.
Human lymphoid CEM T cells were cultured in X-vivo 15 medium (Cambrex, France) at 37° C. in humidified 5% CO2 atmosphere. Cell viability was checked by trypan blue exclusion. Cells were seeded at 5×10^5 cells/ml in the presence or absence of actinomycin D (0.5 μg/ml) for 18 h. […]
The cells were washed twice by HBSS before each experiment to eliminate fetal bovine serum. […] For fluorescence measurements with the probe of the invention F2N12S (fluorometry, flow cytometry and confocal microscopy), cells were resuspended in HBSS with 0.1 μM F2N12S. […] The staining pattern of the cells was checked with a Confocal Imaging System MRC-1024 (BioRad) to ascertain that fluorescence originates from the plasma membrane.
Fluorescence spectra were recorded on a FLUOROMAX-3® (spectrofluorometer) (JobinYvon Horiba). The excitation wavelength for fluorescence emission spectra of F2N12S probes was 400 nm. […]

T lymphoblastoid cells = assay: Flow cytometry analysis with annexin V-FITC, PI and F2N12S; type: cell-based, human
Description: FIG. 6: Flow cytometry analysis of T lymphoblastoid cells treated by actinomycin D. Cells were stained by annexin V-FITC, PI and F2N12S. In (a), Annexin V-FITC and PI were selectively excited at 488 nm. Cells are sorted into living, dead and apoptotic cell populations. In (b), F2N12S is selectively excited at 407 nm. Living cells are discriminated from apoptotic and necrotic cells. In (c), the PI fluorescence intensities are plotted versus the T*/N* ratio of F2N12S. Living cells are in green, apoptotic cells are in cyan and dead cells are in orange. In (d), the populations sorted using the F2N12S/PI couple were colored according to their response with the annexin V/PI couple. The wavelengths of maximal transmission and bandwidths of used filters are indicated in brackets.
FIG. 7: Comparison of the intensiometric response of annexin V-FITC (a) with the ratiometric fluorescence response of F2N12S (b). Living, dead and apoptotic cells were identified as described in FIG. 6, by using either the annexin V-FITC/PI (a) or the F2N12S/PI (b) couple of dyes.
FIG. 8: Comparison of the response of annexin V-FITC and F2N12S on non-treated T lymphoblastoid cells stained by annexin V-FITC, PI and F2N12S. In (a), annexin V-FITC and PI were selectively excited at 488 nm. In (b), F2N12S is selectively excited at 407 nm. Cells are sorted into living and dead cell populations.
Human lymphoid CEM T cells were cultured in X-vivo 15 medium (Cambrex, France) at 37° C. in humidified 5% CO2 atmosphere. Cell viability was checked by trypan blue exclusion. Cells were seeded at 5×10^5 cells/ml in the presence or absence of actinomycin D (0.5 μg/ml) for 18 h. Cells were pelleted by centrifugation at 1500 rpm for 5 min and resuspended at 1×10^6 cells/ml in X-vivo 15 medium for experiments.
For the validation of F2N12S in cell cytometry, we used a FASCARIA™ (cell sorter) (BD Biosciences, CA, USA) equipped with an argon laser (488 nm) and a diode laser (407 nm) and emission filters DF30, DF42 and DF20 centered at 530 nm, 585 nm and 610 nm, respectively. The optical pathways corresponding to the argon laser and to the diode laser are independent. Data were analyzed using the FACSDIVA™ (cell sorter) Software (BD Biosciences). The granulation, size and fluorescence intensity were recorded at a rate of ˜1000 cells per second.
T lymphoblastoid cells were treated with actinomycin D and labeled simultaneously by FITC-labeled annexin V, propidium iodide (PI) and F2N12S. […] The emissions of FITC and PI were collected in the spectral regions of 515-545 nm and 600-620 nm, respectively. […] The emission light in this case was collected in two spectral regions: at 515-545 nm to monitor the emission of the N* band and 564-606 nm to collect the emission of the T* band (FIG. 6b). […] The second one is characterized by a high N*/T* intensity ratio (shown in red) and can be assigned to apoptotic and dead cells.
The probe of the invention F2N12S has been combined with PI and the fluorescence intensities of PI have been represented as a function of the T*/N* ratio of F2N12S (FIG. 6c). In this case, the populations of apoptotic and dead cells are clearly discriminated by using the differences in the PI intensities. […] This conclusion was further strengthened when the populations discriminated by the F2N12S/PI couple were colored according to their response with the annexin V-FITC/PI couple (FIG. 6d).

[1] = actinomycin D-treated cells, probe combined with PI

## 1-dodecanaminium, N-[[2-[4-Diethylaminophenyl]-3-hydroxychromon-6-yl]-methyl]-N-methyl-N-(3-sulfopropyl)-, inner salt [F2N12S]
CEM T cells; actinomycin D-induced apoptosis, cells sorted with FITC-annexin, excitation 400 nm, probe 0.1 μM
  relative intensity of the short-wavelength band, apoptotic versus living cells: ~2 fold
CEM T cells; apoptotic cells, Ca2+ 0-2 mM
  dependence of the response on Ca2+ concentration: insensitive
T lymphoblastoid cells; [1]
  percentage of apoptotic cells: 19.5%
  percentage of dead cells: 48%
  percentage of living cells: 32.5%
T lymphoblastoid cells; non-treated T lymphoblastoid cells
  percentage of dead cells: 5%
